The values below come from patent US9012439B2, “Use of electrophilic compounds for inducing platelet production or maintaining platelet function” (University of Rochester, priority 2007, dated 2015).

The test system of experiment [1] is Meg-01 cells. Briefly: Platelet production from Meg-01 cells (flow cytometry). It is filed as cell-based, human. To be noted: Meg-01 cells, 10 μM, 24 h. On the procedure:
Meg-01 and M07e cells were purchased from the American Type Culture Collection (Rockville, Md.) and Dami cells were a generous gift from Dr. Patricia J. Simpson-Haidaris (University of Rochester). All cells were cultured in RPMI-1640 tissue culture medium (Invitrogen) supplemented with 5% fetal bovine serum (FBS; Invitrogen), 10 mM HEPES (N-2-hydroxyethylpiperazine-N′-2-ethanesulfonic acid; Sigma), 2 mM L-glutamine (Invitrogen), 4.5 g/L glucose (Invitrogen), and 50 μg/mL gentamicin (Invitrogen). M07e cells were also supplemented with 100 ng/mL of granulocyte monocyte-colony stimulating factor (GM-CSF, R&D Systems). All treatments were performed in normal growth media. Dimethyl sulfoxide (DMSO) was used as a vehicle (control) in the experiments described below.
Platelets were isolated from megakaryocytes by centrifugation at 150 xg for 10 min. Supernatants underwent sequential centrifugation (500 xg for 10 min and 1000×g for 10 min). The remaining platelet pellet was fixed then permeabilized with a CD61 or CD41 antibody. 7-AAD (BD Pharmingen) was added for 10 min before analyzing the cells by flow cytometry. Platelets were identified using three well-described parameters (Patel et al., “The Biogenesis of Platelets from Megakaryocyte Proplatelets,” J Clin Invest 115:3348-3354 (2005); Breton-Gorius et al., “Expression of Platelet Proteins During the In Vitro and In Vivo Differentiation of Megakaryocytes and Morphological Aspects of Their Maturation,” Semin Hematol 23:43-67 (1986); Ogura et al., “Establishment of a Novel Human Megakaryoblastic Leukemia Cell Line, MEG-01, With Positive Philadelphia Chromosome,” Blood 66:1384-1392 (1985) and Franks et al., “A Fluorescence Microscopy Method for Quantifying Levels of Prostaglandin Endoperoxide H Synthase-1 and CD-41 in MEG-01 Cells,” Biol Proced Online 3:54-63 (2001), each of which is hereby incorporated by reference in its entirety), size (using normal human platelets as a control), presence of CD61 or CD41 and lack of DNA as determined by the absence of 7-AAD staining Ten thousand platelet events were collected and platelets were quantified by rate (platelet events/second) (Chung et al., “Platelet Activation in Acute, Decompensated Congestive Heart Failure,” Thromb Res 120:709-713 (2007), which is hereby incorporated by reference in its entirety.
A 19 by target sequence was selected to knock down PPARγ. PPARγ was cloned downstream of the RNA polymerase III U6 promoter and subcloned into a FG12 lentiviral vector which expresses green fluorescent protein (GFP) under the Ubiquitin C promoter. HEK 293 cells expressing this siRNA PPARγ had reduced PPARγ protein levels. To make the lentivirus, HEK 293 cells were co-transfected with 3 plasmids: the envelope vector (CMV-VSVG), the transfer vector (FG12-shRNAPPAR), and the packaging construct (pCMVΔ89.2 (gag/pol proteins)). Viral supernatants were collected every 8 h for 2 days and concentrated by ultracentrifugation at 50,000×g for 2 h at 4° C. using a Beckman SW 28 rotor. Viral titers were determined by infection of HeLa cells with serial dilutions of the viral stocks. Meg-01 cells were infected at a multiplicity of infection (MOI) of 20. After 48 h, approximately 56% of the PPARγ siRNA cells were transduced as determined by flow cytometry. The GFP positive (+) cells were then sorted by FACS and grown in RPMI with 5% FBS.
In general terms: Flow cytometry measures light scatter and fluorescence of single cells or particles in a stream.

In another experiment the target is T1, PPARγ (Homo sapiens, UniProt P37231).
T1 construct: Meg-01 cells were plated at a density of […] cells per well in a E-well plate and transfected; endogenous in cells; host or cells: Meg-01 cells
T1 sequence (P37231 1-505): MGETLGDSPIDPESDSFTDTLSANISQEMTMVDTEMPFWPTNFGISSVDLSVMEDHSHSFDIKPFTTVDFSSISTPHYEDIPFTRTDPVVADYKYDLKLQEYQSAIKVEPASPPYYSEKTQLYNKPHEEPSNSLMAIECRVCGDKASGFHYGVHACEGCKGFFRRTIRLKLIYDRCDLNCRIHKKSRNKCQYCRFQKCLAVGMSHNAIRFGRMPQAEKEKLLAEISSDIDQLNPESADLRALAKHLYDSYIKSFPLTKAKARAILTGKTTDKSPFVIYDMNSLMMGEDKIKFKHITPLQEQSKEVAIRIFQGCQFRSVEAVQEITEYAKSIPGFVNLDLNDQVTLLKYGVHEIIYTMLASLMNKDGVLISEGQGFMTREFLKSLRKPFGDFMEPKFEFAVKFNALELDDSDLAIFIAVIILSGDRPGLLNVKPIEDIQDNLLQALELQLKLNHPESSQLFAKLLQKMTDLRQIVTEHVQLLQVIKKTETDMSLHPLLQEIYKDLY
As to the kind of experiment: PPARγ gene reporter analysis (PPRE-luciferase) in Meg-01 cells. To be noted: 10 μM, 24 h after ligand treatment. It is filed as cell-based. The protocol: Meg-01 cells were plated at a density of […] cells per well in a […] and transfected, using lipofectamine LTX (Invitrogen), with a PPRE (Peroxisome Proliferator Response Element)-luciferase reporter plasmid containing three copies of the ACO-PPRE (a gift from Dr. B. Seed, Massachusetts General Hospital, Boston, Mass.). […] Transfection efficiency was determined by transfecting the cells with green fluorescent protein (GFP) plasmid and determining the percentage of cells that were GFP+ by flow cytometry. […] Luciferase activity was assessed 24 h after ligand treatment using the Promega Luciferase Assay System, and relative light units (RLU) were determined using a Lumicount Microplate Luminometer (Packard Instrument Co., Meriden, Conn.).

For experiment [2], the system named is Meg-01 cells. Briefly: Reactive oxygen species production in Meg-01 cells (carboxy-H2DCFDA, MitoSOX Red). It is filed as cell-based, human. The conditions noted are these: Meg-01 cells, 1 h and 6 h; for change in percentage of cells generating mitochondrial superoxide (MitoSOX Red): 10 μM. On the procedure: Ten μM carboxy-H2DCFDA was added to cells for 20 min at RT. The cells were washed and immediately analyzed by flow cytometry. Five μM of MitoSOX Red dye in HBSS containing Mg^2+ and Ca^2+ was added to the cells for 15 min at 37° C. The cells were washed in HBSS and analyzed by flow cytometry.

The test system of experiment [3] is C57BL/6 mice. As to the kind of experiment: Circulating platelet number in unirradiated mice. To be noted: unirradiated C57BL/6 mice, 1 mg/kg IV four consecutive days, d 4. The class given is in vivo, mouse (C57BL/6). The protocol: (§1) Seven or 8-week-old male C57BL/6 mice (Jackson Laboratories) were either exposed to 5 Gy cesium (Cs^137) total body irradiation (TBI) using a Model 8114 6000 Curie Shepherd Cs^137 irradiator (approximately 3200 Curie sealed Cs^137 source) with a dose rate of […] or left unexposed. Mice (n=4) received intravenous injections of vehicle (8% DMSO) or 15d-PGJ2 (1 mg/kg) or CDDO-Me (250 μg/kg) for 4 consecutive days from day 1 (days 1, 2, 3 and 4 post-irradiation). Blood was obtained from the aorta or the orbital sinus. Platelets were counted prior to radiation exposure and after radiation exposure on day 10, day 22, and day 31 in Example 7, or days 4, 10, 16, and 21 in Example 9 using the Heska® CBC-Diff™ Veterinary Analyzer (Fort Collins, Colo.). Data are expressed as average platelet counts from two separate experiments. For the unirradiated mice, platelets were counted on day 4, day 10, and day 15 in Example 7 or on the same days in Example 9.

The subject of experiment [4] is primary mouse megakaryocytes. Briefly: DNA content analysis of primary mouse megakaryocytes. The class given is cell-based. To be noted: by 24 h. On the procedure: Bone marrow was isolated from the femora of male C57BL/6 mice (Jackson Laboratories, Bar Harbor, Me.) and plated at a concentration of 1×10^6 cells per well in 12-well plates in IMDM (Iscove's Modified Dulbecco's Media, Invitrogen) with 20% BIT 9500 (BSA, insulin, transferrin) and supplemented with 100 ng/mL of rhTPO. Cells were cultured for 5 days, following which 15d-PGJ2 (10 μM) was added to the culture medium for 24 h. On the sixth day, cells were examined by phase-contrast microscopy using an inverted microscope (Olympus IX81) and images were captured using SPOT RT software (New Hyde Park, N.Y.). Megakaryocytes were identified by preincubating with anti-mouse CD16/32 (FcγR-blocking antibody) and then incubating with PE-conjugated hamster anti-mouse CD41 antibody.
Cells were fixed in 95% ethanol, treated with RNAse (Sigma) followed by 20 μg/mL propidium iodide (Sigma) to stain DNA, and analyzed by flow cytometry.

Experiment [5] has as its system mouse megakaryocyte progenitors (Meg-CFC). As to the kind of experiment: Megakaryocyte progenitor (Meg-CFC) assay on bone marrow of treated mice. It is filed as in vivo. On the procedure: Primary mouse bone marrow cells were suspended in IMDM at a concentration of 8×10^6 cells/mL. Two-hundred thousand cells were plated in IMDM supplemented with 20% BIT9500, 0.2% 2-mercaptoethanol, 2% Glutamax, and 20% Cellgro-H20 (Mediatech, Herndon, Va.) and cultured with rhTPO (50 ng/mL), IL-3 (10 ng/mL) (Preprotech, Rocky Hill, N.J.), IL-6 (20 ng/mL) (Preprotech), IL-11 (Preprotech) (50 ng/mL), and collagen at 37° for 7 days (Tober et al., “The Megakaryocyte Lineage Originates from Hemangioblast Precursors and is an Integral Component Both of Primitive and of Definitive Hematopoiesis,” Blood 109:1433-1441 (2007), which is hereby incorporated by reference in its entirety). Collagen gels were dehydrated, fixed, and labeled with GPIbβ and GPV, modified by ABC (Vector Labs, Burlingame, Calif.), and developed in Vector Red (Vector Labs). Meg-CFC were defined by their ability to generate colonies containing at least three megakaryocytes.

For experiment [6], the system named is C57BL/6 mice. Briefly: Irradiation-induced thrombocytopenia (5 Gy total body irradiation). The class given is in vivo, mouse (C57BL/6). To be noted: 5 Gy. On the procedure: as §1

Take `CCCCC/C=C\C=C1\C(=O)CC[C@@H]1C/C=C\CCCC(=O)O` [9,10 dihydro-15d-PGJ2, reference compound]: in the experiment with Meg-01 cells [1], the platelet production result was “failed to enhance platelet production”. The “PPARγ activation (PPRE-luciferase activity)” value on PPARγ is “activated PPARγ”. Also, in the experiment with Meg-01 cells [2], the “change in percentage of cells generating mitochondrial superoxide (MitoSOX Red)” value is recorded as “failed to increase the percentage of cells generating mitochondrial superoxide” and the “change in percentage of cells generating ROS (carboxy-H2DCFDA)” value was “failed to increase the percentage of cells generating ROS”.
Regarding `CCCCC/C=C\C=C1\C(=O)C[C@@H](O)[C@H]1C/C=C\CCCC(=O)O` [15d-PGD2, 15-deoxy-Δ^12,14-PG22, reference compound], the platelet production result with Meg-01 cells [1] was “failed to enhance platelet production”. Further, in the experiment on Meg-01 cells [2], the “change in percentage of cells generating mitochondrial superoxide (MitoSOX Red)” value is recorded as “failed to increase the percentage of cells generating mitochondrial superoxide” and the “change in percentage of cells generating ROS (carboxy-H2DCFDA)” value is given as “failed to increase the percentage of cells generating ROS”. In addition, the “levels of circulating platelets on d 4” value in the experiment on C57BL/6 mice [3] is given as “significant increase in the levels of circulating platelets”.
`COC(=O)[C@]12CCC(C)(C)C[C@H]1[C@H]1C(=O)C=C3[C@@]4(C)C=C(C#N)C(=O)C(C)(C)[C@@H]4CC[C@@]3(C)[C@]1(C)CC2` [CDDO-Me, methyl-2-cyano-3,12-dioxooleana-1,9-dien-28-oate]: in experiment [4], the “primary mouse megakaryocyte ploidy” value is recorded as “enhanced primary mouse megakaryocyte ploidy”. In addition, the megakaryocyte number entry in experiment [5] is recorded as “failed to increase megakaryocyte number”. For the same molecule, in experiment [5] (mice injected 250 μg/kg for three consecutive days, 7 days of culture), the “percentage of megakaryocytes producing proplatelets” value is reported as “significantly augmented the percentage of megakaryocytes producing proplatelets”. Also, the “Meg-CFC colony formation compared to vehicle control” value in experiment [5] (normal mice, 250 μg/kg for three consecutive days, bone marrow plated day 4) was “significantly enhanced Meg-CFC colony formation”. Besides, the platelet counts result was “increased platelet counts” with C57BL/6 mice [6] (250 μg/kg days 1-4, day 4); “significantly improved platelet counts” in the experiment on C57BL/6 mice [6] (250 μg/kg days 1-4, days 10 and 16).
